Data published in BindingDB's records for doi:10.1074/jbc.M114.571216 (Dalhousie University, 2014).
pKd: −log10 of the molar value.

Experiments:
[1] = molecular target: T1, Oxysterol-binding protein 2 [1-181,275-916] (Homo sapiens, UniProt Q969R2); assay: Sterol-Binding Assay; conditions: pH 7.4; 20 °C
T1 construct: 1-181,275-916
T1 sequence (Q969R2 whole entry): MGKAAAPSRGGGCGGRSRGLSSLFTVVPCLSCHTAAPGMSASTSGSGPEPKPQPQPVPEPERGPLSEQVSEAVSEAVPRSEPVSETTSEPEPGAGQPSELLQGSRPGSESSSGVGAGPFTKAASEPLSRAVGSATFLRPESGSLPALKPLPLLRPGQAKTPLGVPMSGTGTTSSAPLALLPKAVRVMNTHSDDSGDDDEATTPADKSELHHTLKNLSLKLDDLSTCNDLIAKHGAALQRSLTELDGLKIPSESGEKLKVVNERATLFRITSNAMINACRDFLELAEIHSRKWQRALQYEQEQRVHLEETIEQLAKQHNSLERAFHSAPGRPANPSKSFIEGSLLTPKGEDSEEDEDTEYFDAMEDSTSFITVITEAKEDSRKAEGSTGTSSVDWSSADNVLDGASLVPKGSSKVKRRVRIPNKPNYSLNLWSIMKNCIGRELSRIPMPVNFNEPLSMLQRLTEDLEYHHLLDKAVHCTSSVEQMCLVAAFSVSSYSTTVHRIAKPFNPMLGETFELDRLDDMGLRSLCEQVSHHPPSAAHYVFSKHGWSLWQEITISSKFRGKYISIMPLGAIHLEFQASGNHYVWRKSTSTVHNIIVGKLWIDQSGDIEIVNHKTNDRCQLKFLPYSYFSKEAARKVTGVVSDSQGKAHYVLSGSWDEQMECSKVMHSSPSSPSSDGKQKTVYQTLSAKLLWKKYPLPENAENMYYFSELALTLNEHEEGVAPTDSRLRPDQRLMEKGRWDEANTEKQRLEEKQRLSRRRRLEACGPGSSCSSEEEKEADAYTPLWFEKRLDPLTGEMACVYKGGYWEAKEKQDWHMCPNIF
Description: (§1) Recombinant OSBP, ORP4L, or ORP4S (8 pmol) was incubated in 75 μl of binding buffer (10 mM HEPES (pH 7.4), 150 mM KCl, 2% (w/v) polyvinyl alcohol) containing radioactive sterols (with or without a 40-fold excess of unlabeled sterol). After 2 h at 20 °C, a 25-μl slurry of Talon resin (1:1, v/v) was added and mixed for 10 min. Talon resin and bound protein were washed three times with 300 μl of 10 mM HEPES (pH 7.4) and 150 mM KCl and sedimented by brief centrifugation. Bound proteins were eluted from the resin with 150 mM imidazole (pH 7.4), the resin was sedimented by centrifugation, and radioactivity bound to protein in the supernatant was measured by liquid scintillation counting.

[2] = molecular target: T2, Oxysterol-binding protein 2 (Homo sapiens, UniProt Q969R2); assay: Sterol-Binding Assay; conditions: pH 7.4; 20 °C
T2 sequence (Q969R2 whole entry): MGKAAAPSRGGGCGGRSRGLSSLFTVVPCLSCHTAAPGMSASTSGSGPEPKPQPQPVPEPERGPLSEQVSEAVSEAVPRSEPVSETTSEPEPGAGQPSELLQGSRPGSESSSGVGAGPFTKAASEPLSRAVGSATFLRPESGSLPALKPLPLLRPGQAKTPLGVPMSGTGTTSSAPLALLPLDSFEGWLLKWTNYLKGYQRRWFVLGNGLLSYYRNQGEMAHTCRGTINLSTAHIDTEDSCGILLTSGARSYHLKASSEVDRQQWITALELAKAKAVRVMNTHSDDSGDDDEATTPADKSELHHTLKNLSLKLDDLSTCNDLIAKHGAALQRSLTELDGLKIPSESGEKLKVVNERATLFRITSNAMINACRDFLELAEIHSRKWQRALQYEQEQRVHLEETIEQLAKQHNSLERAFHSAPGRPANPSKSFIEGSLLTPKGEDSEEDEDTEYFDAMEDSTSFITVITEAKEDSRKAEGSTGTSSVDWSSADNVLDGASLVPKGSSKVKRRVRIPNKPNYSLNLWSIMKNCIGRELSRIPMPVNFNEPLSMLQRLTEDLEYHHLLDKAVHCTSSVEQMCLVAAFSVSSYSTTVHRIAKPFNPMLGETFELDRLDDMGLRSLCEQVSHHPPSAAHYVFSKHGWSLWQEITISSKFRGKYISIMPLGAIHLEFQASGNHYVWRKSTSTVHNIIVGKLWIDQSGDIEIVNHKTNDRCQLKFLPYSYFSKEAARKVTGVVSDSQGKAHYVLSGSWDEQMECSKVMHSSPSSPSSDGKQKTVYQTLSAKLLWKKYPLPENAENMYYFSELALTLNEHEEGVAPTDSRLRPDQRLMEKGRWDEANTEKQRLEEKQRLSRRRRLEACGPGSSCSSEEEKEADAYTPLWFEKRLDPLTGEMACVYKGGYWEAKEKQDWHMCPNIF
Description: as §1

SMILES | pKd [1] | pKd [2]
C[C@H](CCCC(C)(C)O)[C@H]1CC[C@H]2[C@@H]3CC=C4C[C@@H](O)CC[C@]4(C)[C@H]3CC[C@]12C [(1S,2R,5S,10S,11S,14R,15R)-14-[(2R)-6-hydroxy-6-methylheptan-2-yl]-2,15-dimethyltetracyclo[8.7.0.0^{2,7}.0^{11,15}]heptadec-7-en-5-ol] | 7.64 | 7.77
CC(C)CCC[C@@H](C)[C@H]1CC[C@H]2[C@@H]3CC=C4C[C@@H](O)CC[C@]4(C)[C@H]3CC[C@]12C [(1S,2R,5S,10S,11S,14R,15R)-2,15-dimethyl-14-[(2R)-6-methylheptan-2-yl]tetracyclo[8.7.0.0^{2,7}.0^{11,15}]heptadec-7-en-5-ol] | 7.22 | 7.17
